Tests used:
S. pneumoniae D39V = test: Bliss interaction score (quartile over a dose matrix) (fitness difference); higher = more antagonism (negative = synergy)
Method in brief: (§1)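 The Bliss score subtracts expected fitness, the product of the single-drug fitness values, from observed fitness. Fitness is plate-normalised OD595 at entry into stationary phase, relative to the robust no-drug mean and capped at 1, with single-drug fitness inferred from combinations. Summaries are quartiles over technical, biological and donor/recipient replicates.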

S. aureus DSM 20231 = test: as above
Method in brief: as §1

B. subtilis 168 [1] = test: as above
Method in brief: as §1

S. aureus Newman = test: as above
Method in brief: as §1

B. subtilis 168 [2] = test: fitness (endpoint OD595 vs no drug) (fraction); higher = more growth
Method in brief: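 Fitness was defined as the optical density at the transition into stationary phase relative to the robust mean of no-drug control wells. Values were capped at 1. Cultures were started at OD595 0.01 in 384-well plates (30 µl, or 55 µl for S. pneumoniae) in TSB, LB Lennox or CY at 37 °C. OD595 was recorded every 30 min over 14 h, with the first reading subtracted as background.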
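Throughout, for Bliss interaction score (quartile over a dose matrix): first quartile when negative (synergy) and third quartile when positive (antagonism).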

CO/N=C(\C(=O)N[C@@H]1C(=O)N2C(C(=O)O)=C(COC(N)=O)CS[C@H]12)c1ccco1 [Cefuroxime] + CCC(C)C1C(=O)NC(=C)C(=O)NC(C(=O)NC(CSCC(C(=O)N1)NC(=O)/C(=C/C)/NC(=O)C(C(C)CC)N)C(=O)NC2C(SCC(NC(=O)CNC(=O)C3CCCN3C2=O)C(=O)NC(CCCCN)C(=O)NC4C(SCC(NC(=O)CNC(=O)C(NC(=O)C(NC(=O)C(NC(=O)CNC4=O)C)CC(C)C)CCSC)C(=O)NC(CC(=O)N)C(=O)NC(CCSC)C(=O)NC(CCCCN)C(=O)NC5C(SCC6C(=O)NC(C(=O)NC(CSC(C(C(=O)N6)NC(=O)C(NC5=O)C)C)C(=O)NC(CO)C(=O)NC(C(C)CC)C(=O)NC(CC7=CN=CN7)C(=O)NC(C(C)C)C(=O)NC(=C)C(=O)NC(CCCCN)C(=O)O)CC8=CN=CN8)C)C)C)CC(C)C [Nisin]
main component drawn
Conditions	Bliss interaction score
B. subtilis 168 [1]	-0.0638
S. aureus DSM 20231	-0.109
S. aureus Newman	-0.331
S. pneumoniae D39V	0.0468

B. subtilis 168 [2], one replicate, main component drawn
Conditions	fitness
first compound 0.04875 µg/mL, partner 0.5 µg/mL	0.608
first compound 0.04875 µg/mL, partner 1 µg/mL	0.529
first compound 0.04875 µg/mL, partner 2 µg/mL	0.417
first compound 0.04875 µg/mL, partner 4 µg/mL	0.0351
first compound 0.04875 µg/mL, partner 8 µg/mL	0.0258
first compound 0.04875 µg/mL, partner 16 µg/mL	0.0482
first compound 0.0975 µg/mL, partner 0.5 µg/mL	0.471
first compound 0.0975 µg/mL, partner 1 µg/mL	0.427
first compound 0.0975 µg/mL, partner 2 µg/mL	0.261
first compound 0.0975 µg/mL, partner 4 µg/mL	0.032
first compound 0.0975 µg/mL, partner 8 µg/mL	0.0195
first compound 0.0975 µg/mL, partner 16 µg/mL	0.02
first compound 0.195 µg/mL, partner 0.5 µg/mL	0.385
first compound 0.195 µg/mL, partner 1 µg/mL	0.382
first compound 0.195 µg/mL, partner 1.25 µg/mL	0.173
first compound 0.195 µg/mL, partner 1.6 µg/mL	0.0755
first compound 0.195 µg/mL, partner 2 µg/mL	0.278
first compound 0.195 µg/mL, partner 2.5 µg/mL	0.0381
first compound 0.195 µg/mL, partner 3.2 µg/mL	0.0377
first compound 0.195 µg/mL, partner 4 µg/mL	0.0274
first compound 0.195 µg/mL, partner 5 µg/mL	0.0619
first compound 0.195 µg/mL, partner 6.4 µg/mL	0.0264
first compound 0.195 µg/mL, partner 8 µg/mL	0.0204
first compound 0.195 µg/mL, partner 16 µg/mL	0.0103
first compound 0.39 µg/mL, partner 1.25 µg/mL	0.086
first compound 0.39 µg/mL, partner 1.6 µg/mL	0.0435
first compound 0.39 µg/mL, partner 2.5 µg/mL	0.0309
first compound 0.39 µg/mL, partner 3.2 µg/mL	0.0108
first compound 0.39 µg/mL, partner 5 µg/mL	0.0219
first compound 0.39 µg/mL, partner 6.4 µg/mL	0.0352
first compound 0.78 µg/mL, partner 1.25 µg/mL	0.0678
first compound 0.78 µg/mL, partner 1.6 µg/mL	0.0281
first compound 0.78 µg/mL, partner 2.5 µg/mL	0.0242
first compound 0.78 µg/mL, partner 3.2 µg/mL	0.0058
first compound 0.78 µg/mL, partner 5 µg/mL	0.0235
first compound 0.78 µg/mL, partner 6.4 µg/mL	0.0238
first compound 1.562 µg/mL, partner 0.5 µg/mL	0.257
first compound 1.562 µg/mL, partner 1 µg/mL	0.0875
first compound 1.562 µg/mL, partner 2 µg/mL	0.038
first compound 3.125 µg/mL, partner 0.5 µg/mL	0.173
first compound 3.125 µg/mL, partner 1 µg/mL	0.0836
first compound 3.125 µg/mL, partner 2 µg/mL	0.02
first compound 6.25 µg/mL, partner 0.5 µg/mL	0.105
first compound 6.25 µg/mL, partner 1 µg/mL	0.0185
first compound 6.25 µg/mL, partner 2 µg/mL	0.0198

CO/N=C(\C(=O)N[C@@H]1C(=O)N2C(C(=O)O)=C(COC(N)=O)CS[C@H]12)c1ccco1 [Cefuroxime] + C[C@H]1c2cccc(O)c2C(=O)C2=C(O)[C@]3(O)C(=O)C(C(N)=O)=C(O)[C@@H](N(C)C)[C@@H]3[C@@H](O)[C@@H]21 [Doxycycline]
Conditions	Bliss interaction score
B. subtilis 168 [1]	0.105
S. aureus DSM 20231	-0.257
S. aureus Newman	-0.0377
S. pneumoniae D39V	0.0445

fitness, B. subtilis 168 [2]
Conditions	first compound 0.04875 µg/mL	first compound 0.0975 µg/mL	first compound 0.195 µg/mL
partner 0.02 µg/mL	0.663	0.603	0.514
partner 0.04 µg/mL	0.6	0.525	0.358
partner 0.08 µg/mL	0.174	0.14	0.12

fitness, B. subtilis 168 [2], one replicate
Conditions	first compound 0.39 µg/mL	first compound 0.78 µg/mL	first compound 1.562 µg/mL	first compound 3.125 µg/mL	first compound 6.25 µg/mL
partner 0.02 µg/mL	0.488	0.451	0.441	0.424	0.393
partner 0.04 µg/mL	0.313	0.298	0.239	0.148	0.0995
partner 0.08 µg/mL	0.236	0.225	0.0559	0.0405	0.0345

CO/N=C(\C(=O)N[C@@H]1C(=O)N2C(C(=O)O)=C(COC(N)=O)CS[C@H]12)c1ccco1 [Cefuroxime] + CC(=O)NC[C@H]1CN(c2ccc(N3CCOCC3)c(F)c2)C(=O)O1 [Linezolid]
Conditions	Bliss interaction score
B. subtilis 168 [1]	0.139
S. aureus DSM 20231	-0.208
S. aureus Newman	0.0749
S. pneumoniae D39V	0.079

fitness, B. subtilis 168 [2]
Conditions	first compound 0.04875 µg/mL	first compound 0.0975 µg/mL	first compound 0.195 µg/mL
partner 0.125 µg/mL	0.532	0.526	0.423
partner 0.25 µg/mL	0.293	0.261	0.0774
partner 0.5 µg/mL	0.103	0.0891	0.0749

fitness, B. subtilis 168 [2], one replicate
Conditions	first compound 0.195 µg/mL	first compound 0.39 µg/mL	first compound 0.78 µg/mL	first compound 1.562 µg/mL	first compound 3.125 µg/mL	first compound 6.25 µg/mL
partner 0.0625 µg/mL	0.379	0.312	0.235	–	–	–
partner 0.125 µg/mL	–	0.227	0.14	0.331	0.384	0.308
partner 0.25 µg/mL	–	0.0397	0.0222	0.0445	0.0527	0.0345
partner 0.5 µg/mL	–	–	–	0.0242	0.0246	0.0074

O=C(O)c1cn(C2CC2)c2cc(N3CCNCC3)c(F)cc2c1=O [Ciprofloxacin] + COc1cc(Cc2cnc(N)nc2N)cc(OC)c1OC [Trimethoprim]
Conditions	Bliss interaction score
B. subtilis 168 [1]	0.135
S. aureus DSM 20231	-0.106
S. aureus Newman	-0.165
S. pneumoniae D39V	0.0557

fitness, B. subtilis 168 [2], one replicate
Conditions	partner 0.1 µg/mL	partner 0.2 µg/mL	partner 0.4 µg/mL	partner 1 µg/mL	partner 2 µg/mL
first compound 0.0098 µg/mL	0.863	0.721	0.516	0.342	0.321
first compound 0.0195 µg/mL	0.835	0.552	0.457	0.333	0.349
first compound 0.039 µg/mL	0.412	0.355	0.334	0.276	0.246

fitness, B. subtilis 168 [2]
Conditions	first compound 0.0098 µg/mL	first compound 0.0195 µg/mL	first compound 0.039 µg/mL
partner 0.125 µg/mL	0.647	0.546	0.424
partner 0.25 µg/mL	0.547	0.428	0.355
partner 0.5 µg/mL	0.479	0.444	0.387

— the supplement of paper PMC10627819
